Columns and labels:
[1] = tested on: complement activation in human serum; settings: cited from earlier work
[2] = tested on: alternative pathway-mediated erythrocyte lysis; settings: cited from earlier work
[3] = tested on: complement activation; settings: cardio-pulmonary bypass, plasmapheresis, dialysis models; cited from earlier work
[4] = tested on: porcine-to-human xenograft; settings: porcine-to-human xenograft perfused with human blood; cited from earlier work
[5] = tested on: heparin/protamine-induced complement activation; settings: primates; cited from earlier work
[6] = tested on: activation of the complement system by immunocomplexes (C3 fixation); experiment: Complement inhibition assay: inhibition of C3 fixation (C3b/iC3b deposition) to ovalbumin-anti-ovalbumin complexes in normal human plasma; type: biochemical; settings: complement-inhibiting activity
Method: Complement activation inhibition was assessed by measuring the inhibition of C3 fixation to ovalbumin—anti-ovalbumin complexes in normal human plasma. Microtiter wells were coated with 50 μl of ovalbumin (10 mg/ml) for 2 hr at 25° C. (overnight at 4° C.). The wells were saturated with 200 μl of 10 mg/ml BSA for 1 hr at 25° C. and then a rabbit anti-ovalbumin antibody was added to form an immunocomplex by which complement can be activated. Thirty microliters of peptides at various concentrations were added directly to each well followed by 30 μl of a 1:80 dilution of human plasma. After 30 min incubation, bound C3b/iC3b was detected using a goat anti-human C3 BRP-conjugated antibody. Color was developed by adding ABTS peroxidase substrate and optical density measured at 405 nm. The concentration of the peptide causing 50% inhibition of C3b/iC3b deposition was taken as the IC50 and used to compare the activities of various peptides.

[7] = tested on: complement activation; settings: in vivo animal models; cited from earlier work

CC[C@H](C)[C@H](N)C(=O)N[C@H]1CSSC[C@@H](C(=O)N[C@H](C(N)=O)[C@@H](C)O)NC(=O)[C@H](CCCN=C(N)N)NC(=O)[C@H](Cc2cnc[nH]2)NC(=O)[C@H](Cc2cnc[nH]2)NC(=O)CNC(=O)[C@H](Cc2c[nH]c3ccccc23)NC(=O)[C@H](CC(=O)O)NC(=O)[C@H](CCC(N)=O)NC(=O)[C@H](C(C)C)NC(=O)[C@H](C(C)C)NC1=O [Compstatin]
inhibition of complement activation in human serum [1]: inhibit complement activation in human serum
IC50 [2]: 12 µM
inhibition of complement activation in extra-corporeal circuit models [3]: inhibit complement activation in models of cardio-pulmonary bypass, plasmapheresis, and dialysis extra-corporeal circuits
lifetime of xenograft [4]: prolong the lifetime of a porcine-to-human xenograft perfused with human blood
inhibition of heparin/protamine-induced complement activation [5]: inhibit heparin/protamine-induced complement activation in primates without significant side effects

Ac-ICVWQDWGAHRCdT-COOH [Ac- 4W, 9A13dT —OH]
activity compared with another peptide (in words) [6]: activity equal to that of peptide SEQ ID NO:5

sCR1: recombinant form of complement receptor 1 known as soluble complement receptor 1
suppression of complement activation [7]: suppress complement activation in in vivo animal models

Source: patent US7989589B2, “Compstatin analogs with improved activity” (The Trustees Of The University Of Pennsylvania, priority 2002, dated 2011)
